15 compounds from patent publication US20260378560A1, “APPROACHES TO DESIGNING AND PERFORMING COMPRESSED BIOLOGICAL EXPERIMENTS AND SYSTEMS FOR IMPLEMENTING THE SAME” (EXVIVO LABS INC., priority 2023, published 2026) can be followed below.

For assay [1], the system named is REH. The assay is described as follows: Cell viability (CellTiter Glo), compressed perturbation pools with informed pool design, MAX-based deconvolution, REH.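 On all read-outs here: higher DRS means a larger drug effect.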 To be noted: REH; for DRS: None (measured individually), informed pool design table; for DRS from MAX-based deconvolution: Samples, 7 Pick 3 informed perturbation pools. The protocol: (§1) Total cell viability was measured for each sample using an ATP-based luminescence assay (i.e., CellTiter Glo). Each cancer drug was then screened at multiple concentrations ranging from one nM to ten μM in order to generate a dose-response curve and calculate a DRS for each cancer cell line.
(§2) Each cancer drug was cultured with target cells individually. At the end of the screen, samples were either analyzed individually or compressed into pools for analysis. The library was compressed alphabetically into ten cohorts, each of which contained seven cancer drugs present in three out of the seven pools, as shown in Table VII. Said another way, the screening platform 210 generated a “7 pick 3” compressed library by assigning the cancer drugs among different pools. […] The library was also compressed into ten cohorts with pools designed based on information known about each cancer drug, as shown in Table VIII. After cell viability measurement and DRS calculation, the DRS of each cancer drug in the samples generated based on the pools were deconvoluted and compared to the DRS for each cancer drug measured individually.
(§3) In parallel to the exemplary sample compression screen covered in Table VII, perturbations were compressed into pools and then screened. The pools were designed using drug class as a feature with two compression rules (or simply “rules”). The first rule required that drugs from the same class be separated into different cohorts (i.e., mutually exclusive groups of pools). […] A benefit of compressing perturbations is the ability to measure additive, antagonistic, and synergistic effects between drugs in the same pool. However, these effects can negatively impact deconvolution of individual drug effects. Therefore, combinations of drugs for which evidence of clinical toxicity exists can be assigned to different pools in accordance with an informed pooling operation. As new preclinical or clinical evidence of toxic combinations becomes available, the rules implemented by the screening platform 210—and more specifically, its algorithm for compressing members of a library—can be updated accordingly.
(§4) In MAX-based deconvolution, an assumption of neutrality between the compressed perturbations is made. In other words, the perturbation with the largest effect is assumed to be masking the effects, if any, of the other perturbations in the pool. For SUM- and MAX-based deconvolution, qualitative deconvolution is first performed to rank the perturbations in each pool based on size of expected effect. Qualitative deconvolution, as described above, ranks the perturbations in a pool from largest effect size to smallest effect size. The ranking is based on the overlap of each perturbation's unique subset of pools with the highest and lowest measured pools. The perturbation with the largest effect is expected to be present in the pools with the highest measured signal or corresponding metric (e.g., DRS), while the perturbation with the smallest effect is expected to be present in the pools with the lowest measured signal or corresponding metric (e.g., DRS).
(§5) For MAX-based deconvolution, the highest ranked perturbation in the rank order is first assigned an effect size based on the pool with the lowest measured signal or corresponding metric (e.g., DRS) that it is present in. Said another way, the screening platform 210 can identify the highest ranked perturbation in the rank order and then assign an effect size based on the measured signal or corresponding metric (e.g., DRS) of the “weakest” pool in which the highest ranked perturbation is included. The screening platform 210 can repeat this step for the next highest ranked perturbation, and so on until the measurements for each pool have been assigned to one of the perturbations. The effects for the remaining perturbations can be assigned a value of zero, since it is assumed that their effect is masked by the perturbation with the largest effect in each pool.
In general terms: In ATP-based viability assays light output follows the ATP content of the culture.

Assay [2] deals with MOLT-4. The assay is described as follows: Cell viability (CellTiter Glo), compressed perturbation pools with informed pool design, MAX-based deconvolution, MOLT-4.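 On all read-outs here: higher DRS means a larger drug effect.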 To be noted: for DRS: MOLT-4, None (measured individually), informed pool design table; for DRS from MAX-based deconvolution: MOLT-4, Samples, 7 Pick 3 informed perturbation pools. The protocol:
as §1, §2, §3, §4, §5

In assay [3] the test system is MOLT-4. The assay is described as follows: Cell viability (CellTiter Glo), library of cancer drugs, individual or sample compression with randomized (alphabetical) pools, MOLT-4. In kind it is cell-based. Conditions: for DRS: MOLT-4, None (measured individually); for DRS from deconvolution: MOLT-4, Samples, 7 Pick 3 randomized (alphabetical) sample pools. The protocol: as §1, §2
(§6) In SUM-based deconvolution, an assumption of additivity is used to quantify the individual effects of each perturbation on each target. Additivity implies that each perturbation effect on each target is positively contributing to the overall effect measured for that pool. This is an accurate assumption for certain experiments, such as when targets or samples are compressed. When targets are pooled—or when samples containing different targets are pooled—the effect of each perturbation on each individual target is diluted. In other words, each perturbation has an isolated effect on a target in culture, and the sum total of the isolated effects are measured when pooled. Therefore, SUM-based deconvolution breaks down the sum total measured for a pool and assigns estimated fractional effects to each compressed perturbation or target in the pool. The screening platform 210 used SUM-based deconvolution for all target and sample compression experiments described above.

Assay [4] deals with REH. As to the kind of experiment: Cell viability (CellTiter Glo), library of cancer drugs, individual or sample compression with randomized (alphabetical) pools, REH. To be noted: REH; for DRS: None (measured individually); for DRS from deconvolution: Samples, 7 Pick 3 randomized (alphabetical) sample pools. In kind it is cell-based. On the procedure:
as §1, §2, §6

On to `Cc1c(C(=O)Nc2ccc(N3C[C@@H](C)O[C@@H](C)C3)nc2)cccc1-c1ccc(OC(F)(F)F)cc1` [Sonidegib], for which the DRS is 0.79 with REH [1], 1.79 in the assay with MOLT-4 [2], 2.50 in the assay on MOLT-4 [3] and 2.40 in the assay on REH [4]. Also, the “DRS from MAX-based deconvolution” value with REH [1] came out at 3.57; in the assay with MOLT-4 [2], 0.00. The DRS from deconvolution is 2.47 in the assay with MOLT-4 [3] and 2.42 in the assay on REH [4].

Consider `Cn1cnc2c(F)c(Nc3ccc(Br)cc3F)c(C(=O)NOCCO)cc21` [Binimetinib], for which the DRS with REH [1] worked out at 0.37; in the assay on MOLT-4 [2], 0.11; in the assay on MOLT-4 [3] it was 0.00; in the assay with REH [4], 0.00. Further, the “DRS from MAX-based deconvolution” value with REH [1] and with MOLT-4 [2] was 0.00 each time. The DRS from deconvolution with MOLT-4 [3] and in the assay with REH [4] was 0.00 in each case.

With `CNC(=O)c1cc(Oc2ccc(NC(=O)Nc3ccc(Cl)c(C(F)(F)F)c3)c(F)c2)ccn1` [Regorafenib], the DRS amounted to 2.85 with REH [1], 3.95 with MOLT-4 [2], 5.79 with MOLT-4 [3] and 6.99 in the assay on REH [4]. Further, the “DRS from MAX-based deconvolution” value with REH [1] worked out at 2.97; in the assay on MOLT-4 [2] it was 4.25. Also, the DRS from deconvolution is 5.22 with MOLT-4 [3] and 7.23 in the assay on REH [4].

In the case of `CNC(=O)c1ccc(-c2cnc3ncc(Cc4ccc5ncccc5c4)n3n2)cc1F` [Capmatinib], the DRS in the assay on REH [1] was 0.00; in the assay on MOLT-4 [2], 0.40; in the assay on MOLT-4 [3], 0.10; in the assay on REH [4], 0.10. The “DRS from MAX-based deconvolution” value in the assay on REH [1] and in the assay with MOLT-4 [2] was 0.00 throughout. The DRS from deconvolution came out at 7.24 in the assay on MOLT-4 [3] and 1.13 with REH [4].

As for `CN(C)C(=O)c1cc2cnc(Nc3ccc(N4CCNCC4)cn3)nc2n1C1CCCC1` [Ribociclib], the DRS with REH [1] came to 12.67; with MOLT-4 [2], 9.01; in the assay with MOLT-4 [3], 0.24; with REH [4], 0.84. Further, the “DRS from MAX-based deconvolution” value is listed as 14.44 in the assay on REH [1] and 11.35 in the assay with MOLT-4 [2]. Further, the DRS from deconvolution with MOLT-4 [3] and in the assay with REH [4] was 0.00 throughout.

Turning to `C=CC(=O)N1CCC[C@@H](n2nc(-c3ccc(Oc4ccccc4)cc3)c3c(N)ncnc32)C1` [Ibrutinib], the DRS in the assay with REH [1] is on record as 0.95; with MOLT-4 [2], 2.35; in the assay on MOLT-4 [3], 2.35; in the assay with REH [4], 0.95. Also, the “DRS from MAX-based deconvolution” value stood at 1.56 in the assay on REH [1] and 3.17 with MOLT-4 [2]. Further, the DRS from deconvolution with MOLT-4 [3] is given as 2.50; in the assay on REH [4], 0.96.

On to `C=C(c1ccc(C(=O)O)cc1)c1cc2c(cc1C)C(C)(C)CCC2(C)C` [Bexarotene], for which the DRS worked out at 4.94 in the assay with REH [1], 4.84 with MOLT-4 [2], 7.00 in the assay on MOLT-4 [3] and 1.00 in the assay on REH [4]. For the same compound, the “DRS from MAX-based deconvolution” value in the assay with REH [1] was 5.97; in the assay with MOLT-4 [2], 5.31. Moreover, the DRS from deconvolution in the assay on MOLT-4 [3] and in the assay on REH [4] was 0.00 throughout.

Consider `N#Cc1ccc(C(c2ccc(C#N)cc2)n2cncn2)cc1` [Letrozole], for which the DRS with REH [1] was 0.00; with MOLT-4 [2] it was 0.00; with MOLT-4 [3], 3.50; with REH [4], 3.93. Further, the “DRS from MAX-based deconvolution” value with REH [1] and in the assay with MOLT-4 [2] was 0.00 in each case. The DRS from deconvolution amounted to 3.47 with MOLT-4 [3] and 4.02 with REH [4].

Regarding `CN1CCN(c2ccc(C(=O)Nc3n[nH]c4ccc(Cc5cc(F)cc(F)c5)cc34)c(NC3CCOCC3)c2)CC1` [Entrectinib], the DRS is listed as 16.20 in the assay on REH [1], 18.70 with MOLT-4 [2], 0.00 in the assay on MOLT-4 [3] and 0.00 in the assay with REH [4]. Further, the entries for the “DRS from MAX-based deconvolution” value in the assay with REH [1] and with MOLT-4 [2] were 18.94 and 21.41, respectively. The DRS from deconvolution in the assay with MOLT-4 [3] and in the assay with REH [4] was 0.00 throughout.

As for `CCc1cc2c(cc1N1CCC(N3CCOCC3)CC1)C(C)(C)c1[nH]c3cc(C#N)ccc3c1C2=O` [Alectinib], the DRS in the assay on REH [1] is 0.00; in the assay on MOLT-4 [2], 0.70; in the assay with MOLT-4 [3], 0.00; in the assay with REH [4] it was 0.20. The “DRS from MAX-based deconvolution” value with REH [1] was 0.00; in the assay with MOLT-4 [2], 1.19. In addition, the DRS from deconvolution in the assay with MOLT-4 [3] and in the assay with REH [4] was 0.00 each time.

Consider `C[C@H](Nc1ncnc2nc[nH]c12)c1cc2cccc(Cl)c2c(=O)n1-c1ccccc1` [Duvelisib], for which the DRS with REH [1] came out at 2.58; with MOLT-4 [2] it was 5.28; in the assay with MOLT-4 [3], 0.00; in the assay with REH [4], 0.00. In addition, the “DRS from MAX-based deconvolution” value with REH [1] was 3.75; with MOLT-4 [2], 5.28. Also, the DRS from deconvolution in the assay on MOLT-4 [3] and in the assay with REH [4] was 0.00 in each case.

Take `Cc1ccc(C(=O)Nc2ccc(CN3CCN(C)CC3)c(C(F)(F)F)c2)cc1C#Cc1cnc2cccnn12` [Ponatinib]: the DRS in the assay with REH [1] was 0.84; in the assay on MOLT-4 [2] it was 0.24; in the assay with MOLT-4 [3], 6.12; with REH [4], 4.42. For the same compound, the “DRS from MAX-based deconvolution” value with REH [1] and with MOLT-4 [2] was 0.00 each time. For the same compound, the DRS from deconvolution with MOLT-4 [3] stood at 6.51; in the assay on REH [4], 3.86.

For `CC(C)(C#N)c1cc(Cn2cncn2)cc(C(C)(C)C#N)c1` [Anastrozole], the DRS with REH [1] was 0.06; in the assay with MOLT-4 [2], 0.56; in the assay with MOLT-4 [3] it was 0.01; in the assay with REH [4] it was 0.01. The “DRS from MAX-based deconvolution” value in the assay with REH [1] is recorded as 0.00; with MOLT-4 [2], 0.79. The DRS from deconvolution was determined as 0.00 in the assay with MOLT-4 [3] and 0.21 with REH [4].

Consider `CC(=O)Nc1cccc(-n2c(=O)n(C3CC3)c(=O)c3c(Nc4ccc(I)cc4F)n(C)c(=O)c(C)c32)c1` [Trametinib], for which the DRS in the assay with REH [1] amounted to 21.81; in the assay with MOLT-4 [2] it was 24.71; with MOLT-4 [3] it was 0.00; in the assay on REH [4], 0.00. For the same compound, the results for the “DRS from MAX-based deconvolution” value with REH [1] and in the assay on MOLT-4 [2] were 23.72 and 24.91, respectively. Besides, the DRS from deconvolution in the assay on MOLT-4 [3] and with REH [4] was 0.00 each time.

Consider `FC(F)(F)c1ccc(CNc2ccc(Cc3c[nH]c4ncc(Cl)cc34)cn2)cn1` [Pexidartinib], for which the DRS in the assay on REH [1] was 1.00; in the assay with MOLT-4 [2], 7.00; in the assay with MOLT-4 [3], 0.00; in the assay with REH [4] it was 2.30. Moreover, the “DRS from MAX-based deconvolution” value with REH [1] turned out to be 0.00; in the assay on MOLT-4 [2] it was 9.12. Moreover, the results for the DRS from deconvolution in the assay with MOLT-4 [3] and with REH [4] were 0.00 and 2.11, respectively.
